In patent publication US20080113908A1, “Use of CRF receptor agonists for the treatment or Prophylaxis of diseases, for example Neurodegenerative diseases” (SmithKline Beecham plc, priority 2000, published 2008):

Tested on: primary cerebellar granule neurones
Test: Neuroprotection by agonists with or without cAMP inhibitor Rp-cAMP (FIG. 4)
Format: cell-based, rat
Conditions: Rp-cAMP 100 μM; agonists 10 nM; LY 294002 75 μM
Experimental: FIG. 4 illustrates percentage mean survival of primary cerebellar granule neurones, when in the presence of the PI 3-kinase inhibitor LY 294002 (75 μM) and also a CRF receptor agonist at 10 nM (CRF, urocortin, urotensin 1, or sauvagine), in the absence or presence of the cAMP inhibitor Rp-cAMP (100 μM). The columns from left to right represent: (1) control without LY 294002 or agonist; (2) control without agonist but with LY 294002; (columns 3, 5, 7, 9) with LY 294002 and either CRF, urocortin, urotensin 1, or sauvagine respectively; (columns 4, 6, 8, 10) as columns 3, 5, 7 and 9 respectively but additionally also with Rp-cAMP. The approx. 20% reduction in neuroprotection when in the presence of Rp-cAMP is clear.

Question: With `Nc1ncnc2c1ncn2[C@@H]1O[C@@H]2CO[P@@](O)(=S)O[C@H]2[C@H]1O` [Rp-cAMPS] as the compound, how does the “reduction of neuronal rescue provided by the CRF receptor agonists” value read?
Answer: about 20%
